Test results reported in article PMC4613501, “Diversity in the structures and ligand-binding sites of nematode fatty acid and retinol-binding proteins revealed by Na-FAR-1 from Necator americanus” (Biochemical Journal, 2015).

Key:
Format in all cases: binding
Na-FAR-1 [1] = target: T1, Na-FAR-1 (Necator americanus, UniProt W2SRJ3); experiment: fluorescence emission spectroscopy; details: delipidated protein
T1 construct: gene NECAME_14208; His-tagged; expressed in E. coli BL21 (lambda DE3), selenomethionine form in B834

Na-FAR-1 [2] = target: T1, Na-FAR-1; experiment: X-ray crystallography; details: selenomethionine-labelled protein; co-purified from E. coli, palmitate chosen as fit to a C16 fatty acid density; internal cavity around Lys96
Na-FAR-1 [3] = target: T1, Na-FAR-1; experiment: NMR titration ([…] HSQC chemical shift perturbation); details: apo protein 0.4 mM, sodium oleate, 20 mM sodium phosphate pH 7.20, 311 K; multiple sites, no fitted constant

T1 sequence (W2SRJ3 entry or part of it): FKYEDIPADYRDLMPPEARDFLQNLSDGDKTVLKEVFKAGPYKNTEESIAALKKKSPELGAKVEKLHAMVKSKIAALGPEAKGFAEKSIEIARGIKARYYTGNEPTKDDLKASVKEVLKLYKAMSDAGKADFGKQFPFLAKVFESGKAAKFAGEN

CC1=C(/C=C/C(C)=C/C=C/C(C)=C/CO)C(C)(C)CCC1 [retinol]
fluorescence emission spectroscopy (Na-FAR-1 [1]; retinol in ethanol, 1.5 μM protein, excitation 350 nm, isomer not stated): Na-FAR-1 bound the fluorescent FA analogue DAUDA and the naturally fluorescent lipid retinol

CCCCCCCCCCCCCCCC(=O)O [palmitate]
X-ray crystallography (Na-FAR-1 [2]): Since the predominant FA found in E. coli lipids is palmitate, we fitted this

CN(C)c1cccc2c(S(=O)(=O)NCCCCCCCCCCC(=O)O)cccc12 [DAUDA]
fluorescence emission spectroscopy (Na-FAR-1 [1]; PBS, 1 μM DAUDA, 1 μM protein, excitation 345 nm): Na-FAR-1 bound the fluorescent FA analogue DAUDA and the naturally fluorescent lipid retinol

CCCCCCCC/C=C\CCCCCCCC(=O)O [oleic acid]
NMR titration (15N HSQC chemical shift perturbation) (Na-FAR-1 [3]): the protein binds up to at least four oleate molecules
